Data reported in US20190275058A1, “COMPOSITIONS AND METHODS FOR TREATING ADDICTION OR SUBSTANCE USE DISORDERS” (EMBERA NEUROTHERAPEUTICS, INC., priority 2016, published 2019).
“Also recorded” adds a separate entry of the source. Like-named read-outs stand apart in the source and are kept apart here.

What was measured:
adult male Wistar rats [1] = experiment: Cue-induced reinstatement of extinguished cocaine seeking; assay type: in vivo, rat; conditions: for reinstatement of extinguished cocaine seeking: pretreatment, summary of the studies
Description: Training to self-administer cocaine: In one model, rats were exposed to alternating 15-minute periods of access to cocaine self-administration and food reinforcement. Food was used to control for potential nonspecific, ataxis effects of the drugs and combinations. […] The other preclinical model that has been used is the cue-induced reinstatement of extinguished cocaine seeking model of relapse. In this model, rats are trained to self-administer cocaine and the ability of conditioned cues in the environment to reinstate extinguished responding is assessed and taken as a measure of relapse.
Cue-induced Reinstatement of Extinguished Cocaine Seeking: The experiments described herein were designed to investigate whether or not drug combinations identified as effective in reducing cocaine self-administration would also block the ability of conditioned cues to reinstate extinguished cocaine-seeking behavior. Adult male Wistar rats were implanted with chronic jugular catheters and trained to self-administer cocaine (0.25 mg/kg/infusion) by pressing one of the response levers in the experimental chamber (i.e., the “active” or “cocaine” lever) under a fixed-ratio […] schedule of reinforcement during daily 2-hour sessions conducted 5 days per week. At the start of each session, both levers were extended into the chamber and the stimulus light above the active lever was illuminated to indicate the availability of cocaine. […] A 20-second timeout period followed each infusion. The stimulus light above the active lever and the house light and tone compound stimulus were extinguished during the timeout period, and the light above the active lever was illuminated once the timeout ended. When responding on the active lever varied less than 20% for two consecutive days, the response requirement was increased to FR2. When similar stability was observed under the FR2 schedule or reinforcement, the response requirement was increased to the final ratio of four. The criteria for stable responding under the FR4 schedule of reinforcement was a minimum of 10 days of exposure to this schedule that concluded with at least three consecutive days when responding varied by less than 10%. […] Once stable cocaine self-administration was observed, rats were exposed to extinction; the rats were placed into the behavioral chambers, but responding on the “cocaine” (active) lever produced no programmed consequences. Extinction training continued until responding decreased to less than 20% of baseline self-administration. Then reinstatement testing commended. The rats were placed into the experimental chambers, both response levers were extended into the chamber, and the stimulus light above the “active” lever was illuminated as during self-administration training. […] Responding on the “active” lever during reinstatement testing was taken as, an index of cocaine-seeking behavior. Each experimental group consisted of […].

adult male Wistar rats [2] = experiment: Intravenous cocaine self-administration under a multiple, alternating schedule of food reinforcement and cocaine self-administration; assay type: in vivo, rat
Description: Adult male Wistar rats were trained under a multiple, alternating schedule of cocaine and food self-administration. This schedule consisted of alternating periods of cocaine access and food reinforcement. In some instances, as described further below, three doses of cocaine (0.125, 0.25, or 0.50 mg/kg/infusion) were tested. Rats were also periodically trained with saline substitution (cocaine extinction) and food extinction during the same session.
More specifically, adult male Wistar rats were implanted with chronic jugular catheters. Following recovery from surgery, the rats were trained to respond under a multiple, alternating schedule of food reinforcement and cocaine self-administration. Food-maintained responding was used to control for the non-specific motor effects of the various treatments. During the food component of the schedule, the stimulus light located above the food response lever was illuminated to indicate the availability of food reinforcement. […] A 25-second timeout followed the delivery of each food pellet. During this timeout, the stimulus light was darkened and responses on the food lever were counted but had no scheduled consequences. Responding on the other (cocaine) lever during the food component also had no scheduled consequences. […] Following 15 minutes of access to food, all stimulus lights in the chamber were darkened for a 1-minute timeout. Following the timeout, the stimulus light above the cocaine response lever was illuminated to indicate the availability of cocaine (0.125, 0.25, or 0.5 mg/kg/infusion). […] A 20-second timeout period followed each infusion. […] After 15 minutes of access to cocaine and a 1-minute timeout, the rats were again allowed 15 minutes access to the food component of the schedule. Access to food and cocaine alternated in this manner every 15 minutes during the two hour behavioral sessions so that each rat was exposed to food and cocaine for four 15-minute periods each. Each behavioral session began with 15 minutes access to either food or cocaine, and this alternated daily. Stable baselines of responding were established when the total number of cocaine and food presentations, as well as the number of presentations during each of the four exposures each session, varied less than 10% for three consecutive sessions. At least three different doses of cocaine (e.g., 0.125, 0.25, and 0.5 mg/kg/infusion) were tested. Rats were first trained to self-administer 0.25 mg/kg/infusion, which was the standard dose of cocaine used. When responding stabilized, the dose was changed to 0.125 or 0.5 mg/kg/infusion as appropriate.
Once stable baselines of responding were obtained, dose-response curves for the various compounds were individually generated for each rat. Rats were treated with each dose at least twice with a minimum of two days of baseline cocaine self-administration interspersed between each test. Each group of rats was tested with only two of the test compounds to minimize potential carryover effects.

rats = conditions: pretreatment, literature; cited from earlier work
smokers = conditions: smoking cessation therapy; cited from earlier work
[3] = Pharmacokinetic interaction between cocaine, metyrapone and oxazepam (plasma concentrations, GCMS); assay type: in vivo, rat
Description: Thirty minutes following the drug combination or vehicle injection, the rats received intravenous injections of cocaine (0.25 mg/kg/infusion) every 2 minutes for 1 hour. After the final injection of cocaine, blood was collected from the catheter for the analysis of cocaine and its metabolites ecgonine methyl ester and benzoylecgonine. […] All drug concentrations were determined using GCMS procedures.

[4] = Phase I single- and multiple-rising dose study: plasma pharmacokinetics; set-up: species or system human; conditions: in vivo; for change of half-lives at different doses or with repeated dosing / Tmax / half-life: human; for half-life: t1/2
Description: Total daily doses were double these amounts on BID dosing days. Primary outcomes were safety and pharmacokinetics of MET, its active metabolite (metyrapol), and OX. Safety measures included vital signs, ECGs an standard safety labs. Cortisol and other HPA axis parameters were monitored closely throughout the study.
They were not seeking to quit smoking. […] Primary outcomes were safety and pharmacokinetics.

male Wistar rats = experiment: Forced Swim Test (FST), animal model of depression
[5] = high dose, ip pretreatment, drug alone
[6] = low, ineffective dose, ip pretreatment, drug alone
[7] = pretreatment, summary of the studies

With `CCCCN(CC)c1nc(C)nc2c1c(C)cn2-c1c(C)cc(C)cc1C` [CP-154,526] the “reinstatement of extinguished cocaine seeking” value (adult male Wistar rats [1]) was “decrease”, the cocaine self-administration (adult male Wistar rats [2]; [5]) was “reduced cocaine self-administration” and the cocaine self-administration (adult male Wistar rats [2]; [6]) was “did not significantly affect”. For the same compound, the cocaine self-administration (adult male Wistar rats [2]; [7]) was “decrease cocaine self-administration”.

In the case of `Cc1nnc2n1-c1ccc(Cl)cc1C(c1ccccc1)=NC2` [alprazolam], the cocaine self-administration (rats) is listed as “reduced responding maintained by both food and cocaine”, the “reinstatement of extinguished cocaine seeking” value (adult male Wistar rats [1]) is listed as “decrease” and the cocaine self-administration (adult male Wistar rats [2]; [5]) is listed as “reduced cocaine self-administration”. The cocaine self-administration (adult male Wistar rats [2]; [6]) was “did not significantly affect” and the cocaine self-administration (adult male Wistar rats [2]; [7]) was “decrease cocaine self-administration”.

In the case of `CC(NC(C)(C)C)C(=O)c1cccc(Cl)c1` (centres unmarked) [bupropion], the “one year quit rate” value (smokers) is listed as 15.5%.

In the case of `COC(=O)[C@H]1[C@@H](OC(=O)c2ccccc2)C[C@@H]2CC[C@H]1N2C` [cocaine], the “effect on plasma concentrations of metyrapone or oxazepam” value ([3]; rats, presence of cocaine) is reported as “did not affect the plasma concentrations of metyrapone or oxazepam”.

For `CC(=O)N1CCN(c2ccc(OCC3COC(Cn4ccnc4)(c4ccc(Cl)cc4Cl)O3)cc2)CC1` (centres unmarked) [ketoconazole], the cocaine self-administration (rats) is given as “reduced cocaine self-administration”, the “reinstatement of extinguished cocaine seeking” value (adult male Wistar rats [1]) is given as “decrease” and the cocaine self-administration (adult male Wistar rats [2]; [6]) is given as “no effect; also recorded: did not significantly affect”. For the same compound, the cocaine self-administration (adult male Wistar rats [2]; [7]) was “decrease cocaine self-administration” and the “minimally effective dose that reduced cocaine self-administration by at least 50% without affecting food-maintained responding” value (adult male Wistar rats [2]; rats) was 25 mg/kg.

In the case of `CC(C)(c1cccnc1)C(O)c1cccnc1` (centres unmarked) [metyrapol], the “change of half-lives at different doses or with repeated dosing” value [4] is reported as “did not change substantially”, the Tmax ([4]; Tmax) is reported as 2 h and the half-life [4] is reported as 8.41 h.

In the case of `CC(C)(C(=O)c1cccnc1)c1cccnc1` [metyrapone], the “influence on plasma concentrations of each other” value ([3]; rat, in vivo, ip) is reported as “did not influence plasma concentrations of each other”, the immobility time (male Wistar rats; chronic, individual drug, Met50 group) is reported as “showed a lessening of immobility time” and the “group means of immobility versus vehicle (tolerance)” value (male Wistar rats; chronically treated groups, drug alone) is reported as “equal to or exceeded the vehicle”. The cocaine self-administration (rats) was “significant dose-related decreases”, the “cue-induced reinstatement of extinguished cocaine seeking” value (adult male Wistar rats [1]; chronic, 50 mg/kg, ip, once per day for 14 days) was “reduced cocaine seeking to levels seen when only saline was delivered” and the “reinstatement of extinguished cocaine seeking” value (adult male Wistar rats [1]) was “decrease”. For the same compound, the cocaine self-administration (adult male Wistar rats [2]; [5]) was “reduced cocaine self-administration”, the cocaine self-administration (adult male Wistar rats [2]; [6]) was “did not significantly affect” and the cocaine self-administration (adult male Wistar rats [2]; [7]) was “decrease cocaine self-administration”. For the same compound, the “change of half-lives at different doses or with repeated dosing” value [4] was “did not change substantially”, the Tmax ([4]; Tmax) was 1.5 h and the half-life [4] was 2.04 h. The “accumulation with repeated dosing” value [4] was “Modest accumulation”.

For `NCc1cc(=O)[nH]o1` [muscimol], the cocaine self-administration (adult male Wistar rats [2]; [5]) was “reduced cocaine self-administration” and the cocaine self-administration (adult male Wistar rats [2]; [6]) was “did not significantly affect”.

For `O=C1Nc2ccc(Cl)cc2C(c2ccccc2)=NC1O` (centres unmarked) [oxazepam], the Tmax ([4]; human plasma, 270 mg Metyrapone/12 mg Oxazepam, Day 1, median, n 6, read-out: Tmax) was 3.5 h, the Tmax ([4]; human plasma, 270 mg Metyrapone/12 mg Oxazepam, Day 10, median, n 6, read-out: Tmax) was 3 h and the Tmax ([4]; human plasma, 540 mg Metyrapone/24 mg Oxazepam, Day 1, median, n 6, read-out: Tmax) was 3 h. For the same compound, the Tmax ([4]; human plasma, 540 mg Metyrapone/24 mg Oxazepam, Day 10, median, n 6, read-out: Tmax) was 3 h, the Tmax ([4]; human plasma, 720 mg Metyrapone/24 mg Oxazepam, Day 1, median, n 6, read-out: Tmax) was 4 h and the Tmax ([4]; human plasma, 720 mg Metyrapone/24 mg Oxazepam, Day 10, median, n 6, read-out: Tmax) was 3 h.

For `c1cnc2cc3c(cc2n1)[C@@H]1CNC[C@H]3C1` [varenicline], the “one year quit rate” value (smokers) is given as 22.5%.
